Source: PubChem BioAssay AID264 (DTP/NCI, 2004)
Values joined by “and” are separate entries in the source; they are usually repeats but may differ in a detail not shown here. Identical values can stand only once. Inconclusive results are not listed.

Test system: nude mice, LX-1 lung xenograft intrarenal, tumor weight T/C
Assay: NCI In Vivo Anticancer Drug Screen. Data for tumor model Human Lung LX-1 Xenograft (intrarenal inoculation) in NU/NU Swiss (nude) mice
Details: endpoint: mean tumor weight change, higher = larger tumour
In short: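 Tumor-bearing mice receive test compound or vehicle; tumor size is then measured in each group. The treated value is divided by the vehicle value to give T/C.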

[1] = dose: 100.0 mg/kg/injection, schedule: Q04DX003 (sc), vehicle: saline with Tween-80
[2] = dose: 400.0 mg/kg/injection, schedule: Q04DX003 (sc), vehicle: saline with Tween-80
[3] = dose: 75.0 mg/kg/injection, schedule: Q04DX003 (sc), vehicle: saline with Tween-80
[4] = dose: 150.0 mg/kg/injection, schedule: Q04DX003 (sc), vehicle: saline with Tween-80
[5] = dose: 300.0 mg/kg/injection, schedule: Q04DX003 (sc), vehicle: saline with Tween-80
[6] = dose: 600.0 mg/kg/injection, schedule: Q04DX003 (sc), vehicle: saline with Tween-80
[7] = dose: 25.0 mg/kg/injection, schedule: Q04DX003 (sc), vehicle: Klucel (hydroxypropylcellulose) (HPC)
[8] = dose: 50.0 mg/kg/injection, schedule: Q04DX003 (sc), vehicle: Klucel (hydroxypropylcellulose) (HPC)
[9] = dose: 100.0 mg/kg/injection, schedule: Q04DX003 (sc), vehicle: Klucel (hydroxypropylcellulose) (HPC)
[10] = dose: 1200.0 mg/kg/injection, schedule: Q04DX003 (sc), vehicle: saline with Tween-80
[11] = dose: 100.0 mg/kg/injection, schedule: Q04DX003 (sc), vehicle: saline
[12] = dose: 25.0 mg/kg/injection, schedule: Q04DX003 (sc), vehicle: saline
[13] = dose: 50.0 mg/kg/injection, schedule: Q04DX003 (sc), vehicle: saline
[14] = dose: 300.0 mg/kg/injection, schedule: Q04DX003 (sc), vehicle: Klucel (hydroxypropylcellulose) (HPC)
[15] = dose: 600.0 mg/kg/injection, schedule: Q04DX003 (sc), vehicle: Klucel (hydroxypropylcellulose) (HPC)
[16] = dose: 1200.0 mg/kg/injection, schedule: Q04DX003 (sc), vehicle: Klucel (hydroxypropylcellulose) (HPC)

O=C1NC(=O)C2C3C=CC(C12)C1C2C(=O)NC(=O)C2C31 (stereo unspecified) was tested, and the T/C [1] was 123 % of control, the T/C [2] was 84 % of control and the T/C (dose: 800.0 mg/kg/injection, schedule: Q04DX003 (sc), vehicle: saline with Tween-80) was 75 % of control. The T/C (dose: 1600.0 mg/kg/injection, schedule: Q04DX003 (sc), vehicle: saline with Tween-80) was 105 % of control.
In the case of CC1(C)OC2C(COC(=O)c3ccc([N+](=O)[O-])cc3)OC(NC(=O)N(CCCl)N=O)C2O1 (stereo unspecified), the T/C [3] is reported as 84 % of control, the T/C [4] is reported as 43 % of control and the T/C [5] is reported as 41 % of control. The T/C [6] was 27 % of control.
C[n+]1ccc(Nc2ccc(NC(=O)c3ccc(Nc4cc[n+](C)c5ccc(N)cc45)cc3)cc2)cc1 was tested, and the T/C (dose: 12.5 mg/kg/injection, schedule: Q04DX003 (sc), vehicle: distilled water + Tween-80) was 80 % of control, the T/C (dose: 25.0 mg/kg/injection, schedule: Q04DX003 (sc), vehicle: distilled water + Tween-80) was 86 % of control and the T/C (dose: 50.0 mg/kg/injection, schedule: Q04DX003 (sc), vehicle: distilled water + Tween-80) was 25 % of control. For the same molecule, the T/C (dose: 100.0 mg/kg/injection, schedule: Q04DX003 (sc), vehicle: distilled water + Tween-80) was 53 % of control.
With CCCCCCCCCCCCCCCCCC(=O)Nc1ccn(C2OC(CO)C(O)C2O)c(=O)n1 (stereo unspecified) the T/C [3] was 115 % of control, the T/C [4] was 41 % of control and the T/C [5] was 38 % of control. The T/C [6] was 30 % of control.
In the case of CCCCCCCCCCCCCCCC(=O)Nc1ccn(C2OC(CO)C(O)C2O)c(=O)n1 (stereo unspecified), the T/C (dose: 150.0 mg/kg/injection, schedule: Q04DX003 (sc), vehicle: water) is reported as 32 % of control and 33 % of control.
COC1=C(NC(C)=O)C(=O)c2nc(-c3nc(C(=O)O)c(C)c(-c4ccc(OC)c(OC)c4O)c3N)ccc2C1=O was tested, and the T/C [7] was 63 % of control, the T/C [8] was 55 % of control and the T/C [9] was 40 % of control.
For CO[C@H]1C[C@@H]2CC[C@@H](C)[C@@](O)(O2)C(=O)C(=O)N2CCCC[C@H]2C(=O)O[C@H]([C@H](C)C[C@@H]2CC[C@@H](O)[C@H](OC)C2)CC(=O)[C@H](C)C=C(C)[C@@H](O)[C@@H](OC)C(=O)[C@H](C)C[C@H](C)/C=C/C=C/C=C1C, the T/C (dose: 100.0 mg/kg/injection, schedule: Q01DX010 (sc), vehicle: saline with Tween-80) was 72 % of control, the T/C (dose: 200.0 mg/kg/injection, schedule: Q01DX010 (sc), vehicle: saline with Tween-80) was 47 % of control and the T/C (dose: 400.0 mg/kg/injection, schedule: Q01DX010 (sc), vehicle: saline with Tween-80) was 37 % of control. The T/C (dose: 800.0 mg/kg/injection, schedule: Q01DX010 (sc), vehicle: saline with Tween-80) was 69 % of control.
With N=[N+]=CC(=O)CCC(NC(=O)C(CCC(=O)C=[N+]=N)NC(=O)CCC(N)C(=O)O)C(=O)O (stereo unspecified) the T/C (dose: 1.6 mg/kg/injection, schedule: Q04DX003 (sc), vehicle: water) was 119 % of control, the T/C (dose: 3.2 mg/kg/injection, schedule: Q04DX003 (sc), vehicle: water) was 86 % of control and the T/C (dose: 6.4 mg/kg/injection, schedule: Q04DX003 (sc), vehicle: water) was 119 % of control. For the same molecule, the T/C (dose: 12.8 mg/kg/injection, schedule: Q04DX003 (sc), vehicle: water) was 91 % of control.
For CCCCCCC(=O)CC(SCC)c1ccccc1Cl (stereo unspecified), the T/C [5] was 82 % of control, the T/C [6] was 96 % of control and the T/C [10] was 92 % of control. The T/C (dose: 2400.0 mg/kg/injection, schedule: Q04DX003 (sc), vehicle: saline with Tween-80) was 72 % of control.
For Cc1nnc2ncccn12, the T/C [11] was 112 % of control and the T/C (dose: 200.0 mg/kg/injection, schedule: Q04DX003 (sc), vehicle: saline) was 107 % of control.
For CCOC(=O)C1=C(C#N)C2(CCC(OCc3ccccc3)CC2)C(=O)O1 (stereo unspecified), the T/C (dose: 300.0 mg/kg/injection, schedule: Q04DX003 (sc), vehicle: suspension in saline) was 106 % of control, the T/C (dose: 600.0 mg/kg/injection, schedule: Q04DX003 (sc), vehicle: suspension in saline) was 111 % of control and the T/C (dose: 1200.0 mg/kg/injection, schedule: Q04DX003 (sc), vehicle: suspension in saline) was 77 % of control.
With CCN(CC)CCCNc1nccc2c(C)c3[nH]c4ccncc4c3cc12 the T/C (dose: 5.0 mg/kg/injection, schedule: Q01DX010 (sc), vehicle: other) was 59 % of control and the T/C (dose: 10.0 mg/kg/injection, schedule: Q01DX010 (sc), vehicle: other) was 49 % of control.
With C[C@H](N)C(=O)N[C@@H]1[C@H]2C(=C(O)C[C@@H](O)[C@@H]2O)C(=O)O[C@@H]1C the T/C (dose: 300.0 mg/kg/injection, schedule: Q04DX003 (sc), vehicle: saline) was 113 % of control, the T/C (dose: 600.0 mg/kg/injection, schedule: Q04DX003 (sc), vehicle: saline) was 160 % of control and the T/C (dose: 900.0 mg/kg/injection, schedule: Q04DX003 (sc), vehicle: saline) was 54 % of control. The T/C (dose: 1200.0 mg/kg/injection, schedule: Q04DX003 (sc), vehicle: saline) was 92 % of control and 115 % of control and the T/C (dose: 1800.0 mg/kg/injection, schedule: Q04DX003 (sc), vehicle: saline) was 78 % of control.
In the case of COc1cccc2c1C(=O)c1c(O)c3c(c(O)c1C2=O)C[C@@](O)(/C(CO)=N/NC(=O)c1ccc(Cl)c(Cl)c1)C[C@@H]3OC1CC(N)C(O)C(C)O1 (stereo partly specified), the T/C (dose: 8.0 mg/kg/injection, schedule: Q01DX010 (sc), vehicle: water) is reported as 28 % of control, the T/C (dose: 16.0 mg/kg/injection, schedule: Q01DX010 (sc), vehicle: water) is reported as 2 % of control and the T/C (dose: 24.0 mg/kg/injection, schedule: Q04DX003 (sc), vehicle: water) is reported as 54 % of control. For the same molecule, the T/C (dose: 48.0 mg/kg/injection, schedule: Q04DX003 (sc), vehicle: water) was 66 % of control, the T/C (dose: 96.0 mg/kg/injection, schedule: Q04DX003 (sc), vehicle: water) was 33 % of control and the T/C (dose: 192.0 mg/kg/injection, schedule: Q04DX003 (sc), vehicle: water) was 30 % of control.
In the case of [Cl][Pt+2][Cl].[NH-]CC1(C[NH-])CCC1, the T/C (dose: 50.0 mg/kg/injection, schedule: Q04DX003 (sc), vehicle: suspension in saline) is reported as 121 % of control.
In the case of NC(=S)N/N=C/c1ccc(O)cn1, the T/C (dose: 50.0 mg/kg/injection, schedule: Q04DX003 (sc), vehicle: saline with Tween-80) is reported as 102 % of control, the T/C [1] is reported as 94 % of control and the T/C (dose: 200.0 mg/kg/injection, schedule: Q04DX003 (sc), vehicle: saline with Tween-80) is reported as 96 % of control. The T/C [2] was 64 % of control.
For C1CN(P2(N3CC3)=NP(N3CC3)(N3CC3)=NP(N3CC3)(N3CC3)=N2)CCO1 (stereo unspecified), the T/C (dose: 6.25 mg/kg/injection, schedule: Q01DX010 (sc), vehicle: saline) was 107 % of control, the T/C (dose: 12.5 mg/kg/injection, schedule: Q01DX010 (sc), vehicle: saline) was 38 % of control and 43 % of control and 53 % of control and the T/C (dose: 25.0 mg/kg/injection, schedule: Q01DX010 (sc), vehicle: saline) was 28 % of control and 29 % of control and 31 % of control. The T/C [12] was 74 % of control and 82 % of control, the T/C (dose: 50.0 mg/kg/injection, schedule: Q01DX010 (sc), vehicle: saline) was 6 % of control and 8 % of control and the T/C [13] was 23 % of control and 35 % of control. The T/C [11] was 25 % of control.
For COc1nc(=O)n(C2C=CC(=O)O2)cc1F (stereo unspecified), the T/C [7] was 66 % of control, the T/C [8] was 54 % of control and the T/C [9] was 37 % of control.
With CN=C(NC#N)NCCSCc1nc[nH]c1C the T/C [14] was 81 % of control, the T/C [15] was 66 % of control and the T/C [16] was 73 % of control.
In the case of CC(Cc1ccc(O)cc1)NCC(O)c1ccc(O)c(O)c1 (stereo unspecified), the T/C [5] is reported as 62 % of control, the T/C [6] is reported as 98 % of control and the T/C [10] is reported as 61 % of control.
For OCC1OC(n2cnc3cncnc32)C(O)C1O (stereo unspecified), the T/C (dose: 12.5 mg/kg/injection, schedule: Q04DX003 (sc), vehicle: saline) was 89 % of control, the T/C [12] was 118 % of control and the T/C [13] was 69 % of control.
In the case of CC(C)CC(=O)NC(C(=O)NC(C(=O)NC(CC(C)C)C(O)CC(=O)NC(C)C(=O)NC(CC(C)C)C(O)CC(=O)O)C(C)C)C(C)C (stereo unspecified), the T/C (dose: 150.0 mg/kg/injection, schedule: Q04DX003 (sc), vehicle: Klucel (hydroxypropylcellulose) (HPC)) is reported as 70 % of control, the T/C [14] is reported as 93 % of control and the T/C [15] is reported as 66 % of control. The T/C [16] was 51 % of control.
O=c1[nH]c(=O)n([C@H]2CCCO2)cc1F was tested, and the T/C (dose: 50.0 mg/kg/injection, schedule: Q01DX010 (sc), vehicle: Klucel (hydroxypropylcellulose) (HPC)) was 37 % of control, the T/C (dose: 200.0 mg/kg/injection, schedule: Q01DX010 (sc), vehicle: Klucel (hydroxypropylcellulose) (HPC)) was 93 % of control and the T/C (dose: 400.0 mg/kg/injection, schedule: Q01DX010 (sc), vehicle: Klucel (hydroxypropylcellulose) (HPC)) was 103 % of control.
